Where “and” joins values, the source holds several entries; their conditions need not be identical. Equal entries are not always repeated. Where two headings read alike, the source gives them in different places. Marks after values point to notes of the source that are not given here.
Tests used:
[1] = TPGS enhancement of solubility of PPTN at neutral pH; format: physicochemical
Protocol: α-Tocopherol polyethylene glycol succinate (TPGS) was tested for enhancement of solubility of PPTN at neutral pH. A solution containing 5 mg/mL PPTN and 4% TPGS was made by mixing components as indicated in Table 5 with stirring and heating.
To create a solution suitable for in vitro studies, the solution containing 5 mg/mL PPTN and 4% TPGS created above was diluted into phosphate-buffered saline by mixing components as indicated in Table 6.

[2] = Solubility of PPTN in various aqueous and organic solvents; format: physicochemical; details: thermodynamic from solid, PPTN HCl salt, room temperature, read-out: Solubility Estimate
Protocol: The solubility of PPTN in various aqueous and organic solvents was tested. Test media were prepared, and 5 mg/mL solid PPTN (HCl salt) was added at room temperature. If all PPTN dissolved under these conditions, additional PPTN was added to a total of 10 mg/mL. After 24 hours, undissolved material was removed, and the concentration of PPTN in the supernatant was analyzed by HPLC.

[3] = Potency and purity of diluted dosing solutions after manufacture and shipping; format: physicochemical; details: for [KB-1801] determined by HPLC assay: shipped at ambient temperature
Protocol: The stability of high-concentration PPTN solutions containing SBECD were analyzed under conditions used for product manufacturing and distribution. A stock solution containing 8.6 mg/mL PPTN, 12% SBECD in saline was prepared as described above and shipped under refrigerated conditions. Seven days after manufacture, the stock solution was diluted to make dosing solutions for administration as a continuous intravenous infusion as indicated in Table 14 and Table 15.
Samples of diluted dosing solutions were shipped at ambient temperature and analyzed for PPTN (KB-1801) potency and purity.

[4] = Solubility of PPTN at pH ranges suitable for intravenous injection; format: physicochemical
Protocol: The solubility of PPTN at pH ranges suitable for intravenous injection was analyzed. PPTN (HCl salt) was dissolved in DMSO to make a stock solution, and the stock solution was diluted into various aqueous solutions. […] The solutions were then adjusted to achieve a pH ≥5.0, and the solutions were observed again.

[5] = Stability of PPTN in SBECD-containing solution under various storage conditions (UHPLC-UV); format: physicochemical; details: 9 mg/mL PPTN, 12% SBECD; for [PPTN]: in mg/mL
Protocol: The stability of PPTN in SBECD-containing solutions was analyzed under various storage conditions. 20-mL glass vials containing 10 mL of a solution containing 9 mg/mL PPTN and 12% SBECD, as described above, were incubated under various conditions as described in Table 10.
Samples were analyzed by UHPLC-UV as described in Table 11.

rats = assay: Safety of PPTN/SBECD formulations during continuous intravenous infusion; format: in vivo; details: male Sprague-Dawley rat; 72-hour intravenous infusion at 100 mg/kg
Protocol: (§1) The safety and pharmacokinetics of PPTN (KB-1801) in rats receiving continuous intravenous injections of SBECD-containing solutions were analyzed. Three cohorts of six male and six female rats each were given continuous intravenous infusion of PPTN (KB-1801) at 10 mg/kg/day, 30 mg/kg/day or 100 mg/kg/day in a dosing solution containing PPTN at 0.25 mg/mL, 0.75 mg/mL or 2.5 mg/mL and SBECD at about 3.8%. Dosing volume was 40 mIkg/day.

[6] = Urine concentrations, 72-hour continuous intravenous infusion; format: in vivo, Sprague-Dawley rats; details: individual animals; for Total amount in urine: all intervals
Protocol: as §1

[7] = Plasma pharmacokinetics after single bolus intravenous injection; format: in vivo; details: male rats; single bolus intravenous injection 0.85, 2.9 or 8.5 mg/kg; SBECD solution
Protocol: The pharmacokinetics of PPTN (KB-1801) in male rats receiving single bolus intravenous injections of SBECD-containing solutions were analyzed. Three cohorts of four rats each were given a single dose of PPTN (KB-1801) at 0.85 mg/kg, 2.9 mg/kg, or 8.5 mg/kg in 1 mL dosing volume.

[8] = dosing solution, targeted [KB-1801] 0.25 mg/mL
[9] = dosing solution, targeted [KB-1801] 0.75 mg/mL
[10] = dosing solution, targeted [KB-1801] 2.5 mg/mL
[11] = 72-hour IV infusion 10 mg/kg/day, male rats, interval 0-4 h
[12] = 72-hour IV infusion 10 mg/kg/day, male rats, interval 4-9 h
[13] = 72-hour IV infusion 10 mg/kg/day, male rats, interval 20-24 h
[14] = 72-hour IV infusion 10 mg/kg/day, male rats, interval 44-48 h
[15] = 72-hour IV infusion 10 mg/kg/day, male rats, interval 68-72 h
[16] = 72-hour IV infusion 10 mg/kg/day, male rats, interval 92-96 h

O=C(O)c1cc(-c2ccc(C3CCNCC3)cc2)c2ccc(-c3ccc(C(F)(F)F)cc3)cc2c1 [KB-1801, 4-[4-(piperidin-4-yl)phenyl]-7-[4-(trifluoromethyl)phenyl]-2-naphthoic acid]
Solution pH (final) ([1]; 100 μM KB-1801, 0.04 wt % TPGS in buffered saline): Final pH: 7.4 | Solution appearance ([1]; 100 μM KB-1801, 0.04 wt % TPGS in buffered saline (5 mg/ml solution diluted 100x)): Resulting clear solution | Solution appearance ([1]; 5 mg/mL KB-1801, 4 wt % TPGS, after phosphate buffer 20 mM pH 8.3): Resulting clear | Solution pH (final) ([1]; 5 mg/mL KB-1801, 4 wt % TPGS, phosphate buffer, buffered saline): Final pH: 7.0-7.4 | Solution appearance ([1]; 5 mg/mL KB-1801 with TPGS solution, 4 wt %, stirring and heating): Resulting clear | solubility at 24 h ([2]; organic solvent or mixture, DMAc, pH 1-2): > 100 mg/mL | solubility at 24 h ([2]; organic solvent or mixture, NMP, pH 1-2): > 100 mg/mL | solubility at 24 h ([2]; organic solvent or mixture, PEG 400, pH ~2): ~25 mg/mL | solubility at 24 h ([2]; organic solvent or mixture, ethanol, pH ~2): 25 to 30 mg/mL | solubility at 24 h ([2]; organic solvent or mixture, propylene glycol, pH ~2): 40 to 50 mg/mL | solubility at 24 h ([2]; water with 1% DMAc, water w/ 1% DMAc, pH 2-3, 24 hours): 0.1 to 0.5 mg/mL | Concentration higher than target concentrations ([3]; all dosing solution samples): 1.6-8.0% | Degradation products ([3]; all dosing solution samples): No evidence of degradation products was observed in any sample | Impurity profile by HPLC area % [3, 8]: No imp > 0.10 a % | [KB-1801] determined by HPLC assay [3, 8]: 0.27 mg/mL and 0.26 mg/mL | Impurity profile by HPLC area % [3, 9]: No imp > 0.10 a % | [KB-1801] deviation from targeted concentration [3, 9]: +1.3% | [KB-1801] determined by HPLC assay [3, 9]: 0.76 mg/mL | Impurity profile by HPLC area % [3, 10]: No imp > 0.10 a % | [KB-1801] determined by HPLC assay [3, 10]: 2.56 mg/mL and 2.57 mg/mL | Solution appearance at 24 hours ([4]; 0.015 mg/mL (~29 μM), 1.5 mg DMSO stock solution diluted 100x in water, pH 4-5): Clear | Remarks when pH adjusted to 5-5.5 ([4]; 1.0 mg/mL, DMAc/Water (10/90, v/v), initial pH ~2): Became cloudy | Solution appearance at 24 hours ([4]; 5.0 mg/mL, 1.5 mg DMSO stock solution diluted 100x in PBS (20 mM), pH 5-6): Hazy | Remarks when pH adjusted to 5-5.5, after sonication ([4]; 5.0 mg/mL, DMAc/Water (10/90, v/v) with ~0.1% Tween 80, after sonication): became clear | Remarks when pH adjusted to 5-5.5 ([4]; 5.0 mg/mL, DMAc/Water (10/90, v/v) with ~0.1% Tween 80, initial pH 1-2): Became slightly cloudy; | Remarks when pH adjusted to 5-5.5 ([4]; 5.0 mg/mL, DMAc/Water (10/90, v/v), initial pH 1-2): Became very cloudy | Remarks when pH adjusted to 5-5.5 ([4]; 5.0 mg/mL, NMP/Water (10/90, v/v), initial pH 1-2): Became very cloudy | Remarks when pH adjusted to 5-5.5 ([4]; 5.0 mg/mL, Propylene Glycol/Water (10/90, v/v), initial pH 1-2): Became very cloudy | [PPTN] ([5]; 2-5° C., 1d): 8.74 | [PPTN] ([5]; 2-5° C., 7d): 8.69 | [PPTN] ([5]; 2-5° C., 14d): 8.98 | [PPTN] ([5]; 2-5° C., 28d): 8.65 | [PPTN] ([5]; 25° C., 0d): 8.72 | [PPTN] ([5]; 25° C., 1d): 8.75 | [PPTN] ([5]; 25° C., 7d): 8.82 | [PPTN] ([5]; 25° C., 14d): 8.69 | [PPTN] ([5]; 25° C., 28d): 8.71 | [PPTN] ([5]; 40° C., 1d): 8.71 | [PPTN] ([5]; 40° C., 7d): 8.71 | [PPTN] ([5]; 40° C., 14d): 9.25** | [PPTN] ([5]; 40° C., 28d): 8.73 | Degradants in UHPLC-UV trace ([5]; 40° C., 28 days): No degradants were evident | [PPTN] ([5]; 50° C., 1d): 8.78 | [PPTN] ([5]; −20° C., 1d (freeze/thaw)): 9.0* | Mortality, animal 16003 (rats): NS: No Sample. Animal 16003 died shortly after the 24h timepoint according to CRL. | Total amount in urine ([6]; 72-hour IV infusion 10 mg/kg/day, female rats): 27.3 µg and 16.4 µg and 10.5 µg and 18.5 µg and 20.9 µg and 29.4 µg | Total amount in urine ([6]; 72-hour IV infusion 10 mg/kg/day, male rats): 54.2 µg and 46.1 µg and 62.5 µg and 83.7 µg and 74.4 µg and 60.9 µg | Amount in urine [6, 11]: 6.09 µg and 4.08 µg | Urine Conc. [6, 11]: 6.09 µg/mL and 8.16 µg/mL and 3.50 µg/mL and 7.91 µg/mL | Amount in urine [6, 12]: 11.5 µg and 5.46 µg and 8.50 µg and 6.95 µg | Urine Conc. [6, 12]: 7.64 µg/mL and 5.46 µg/mL and 17.0 µg/mL and 6.95 µg/mL and 15.8 µg/mL | Amount in urine [6, 13]: 20.7 µg and 10.0 µg and 7.20 µg and 30.9 µg | Urine Conc. [6, 13]: 20.7 µg/mL and 20.1 µg/mL and 24.0 µg/mL and 10.3 µg/mL and 19.4 µg/mL | Amount in urine [6, 14]: 2.48 µg and 14.1 µg and 22.9 µg | Urine Conc. [6, 14]: 24.8 µg/mL and 14.1 µg/mL and 45.9 µg/mL and 13.7 µg/mL | Amount in urine [6, 15]: 19.3 µg and 23.2 µg and 28.5 µg and 22.7 µg | Urine Conc. [6, 15]: 19.3 µg/mL and 23.2 µg/mL and 28.5 µg/mL and 22.7 µg/mL and 20.9 µg/mL | Amount in urine [6, 16]: 0.07 µg and 0.15 µg and 1.23 µg and 0.08 µg and 0.18 µg | Urine Conc. [6, 16]: 0.13 µg/mL and 0.10 µg/mL and 0.62 µg/mL and 0.20 µg/mL and 0.09 µg/mL and 0.07 µg/mL | Total amount in urine ([6]; 72-hour IV infusion 30 mg/kg/day, female rats): 75.7 μg and 78.9 μg (2×) and 66.9 μg and 80.5 μg and 131.7 μg | Total amount in urine ([6]; 72-hour IV infusion 30 mg/kg/day, male rats): 188.0 µg and 165.1 µg and 250.3 µg and 108.4 µg and 87.4 µg and 332.4 µg | Total amount in urine ([6]; 72-hour IV infusion 100 mg/kg/day, female rats): 251.8 µg and 191.6 µg and 78.7 µg and 198.3 µg and 151.4 µg and 353.9 µg | Total amount in urine ([6]; 72-hour IV infusion 100 mg/kg/day, male rats): 337.1 µg and 155.1 µg and 785.2 µg and 453.6 µg and 537.2 µg and 438.9 µg | PK parameters, relation to dose [7]: linearly dose-related | Pharmacokinetics of plasma PPTN, model [7]: well-described by a 2-compartment model

Reference: US20220202799A1, “PHARMACEUTICAL FORMULATIONS CONTAINING P2Y14 ANTAGONISTS” (priority 2019, published 2022)
